IC50 and Ki data for five compounds are collected here from patent US6426413B1, “Inhibitors of caspases” (Vertex Pharmaceuticals Incorporated, priority 1998, dated 2002).

For one test, the system named is Human whole blood. Description: Whole blood assay for IL-1β production. In kind it is cell-based. As to conditions: LPS 5.0 ng/ml, 16-18 hr at 30° C. Here is the method:
The whole blood assay is a simple method for measuring the production of IL-1β (or other cytokines) and the activity of potential inhibitors. The complexity of this assay system, with its full complement of lymphoid and inflammatory cell types, spectrum of plasma proteins and red blood cells is an ideal in vitro representation of human in vivo physiologic conditions.
Human whole blood sample (^˜30-50 cc) 1.5 ml Eppendorf tubes
Set incubator or water bath at 30°C. Aliquot 0.25 ml of blood into 1.5 ml Eppendorf tubes. Note: be Sure to invert the whole blood sample tubes after every two aliquots. Differences in replicates may result if is the cells sediment and are not uniformly suspended. Use of a positive displacement pipette will also minimize differences between replicate aliquots.
Prepare drug dilutions in sterile pyrogen-free saline by serial dilution. A dilution series which brackets the apparent Ki for a test compound determined in an ICE inhibition assay is generally used for the primary compound screen. For extremely hydrophobic compounds, prepare compound dilutions in fresh plasma obtained from the same blood donor or in PBS-containing 5% DMSO to enhance solubility.
Add 25 μl test compound dilution or vehicle control and gently mix the sample. Then add 5.0 μl LPS solution (250 ng/ml stocked prepared fresh: 5.0 ng/ml final concentration LPS), and mix again. Incubate the tubes at […] in a water bath for 16-18 hr with occasional mixing. Alternatively, the tubes can be placed in a rotator set at 4 rpm for the same incubation period. This assay should be set up in duplicate or triplicate with the following controls: negative control—no LPS; positive control—no test inhibitor; vehicle control—the highest concentration of DMSO or compound solvent used in the experiment. Additional saline is added to all control tubes to normalize volumes for both control and experimental whole blood test samples.
After the incubation period, whole blood samples are centrifuged for 10 minutes at ^˜2000 rpm in the microfuge, plasma is transferred to a fresh microfuge tube and centrifuged at 1000×g to pellet residual platelets if necessary. Plasma samples may be stored frozen at −70° C. prior to assay for cytokine levels by ELISA.
R & D Systems (6.14 McKinley Place N.E. Minneapolis, Minn. 55413) Quantikine kits may be used for measurement of IL-1β and TNF-α. The assays are performed according to the manufacturer's directions. IL-1β levels of ^˜1-5 ng/ml in positive controls among a range of individuals may be observed. A 1:200 dilution of plasma for all samples is usually sufficient for experiments for ELISA results to fall on the linear range of the ELISA standard curves. It may be necessary to optimize standard dilutions if you observe differences in the whole blood assay. Nerad, J. L. et al., J. Leukocyte Biol., 52, pp. 687-692 (1992).

Another test deals with T1, ICE Caspase-1 (Homo sapiens, UniProt P29466).
T1 sequence (P29466 120-297 limits assumed): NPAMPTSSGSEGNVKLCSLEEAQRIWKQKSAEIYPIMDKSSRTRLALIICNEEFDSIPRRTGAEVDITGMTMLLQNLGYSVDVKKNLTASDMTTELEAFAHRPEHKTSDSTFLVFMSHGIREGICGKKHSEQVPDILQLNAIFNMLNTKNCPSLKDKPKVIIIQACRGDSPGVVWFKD
T1 sequence (P29466 317-404 limits assumed): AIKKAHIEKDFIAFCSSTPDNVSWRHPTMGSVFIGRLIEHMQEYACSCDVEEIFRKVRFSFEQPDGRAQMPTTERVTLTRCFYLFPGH
Description: ICE (Caspase-1) enzyme inhibition assay, Ki. To be noted: in vitro enzyme assay. In kind it is biochemical. Here is the method: This assay is run using an Succinyl-Tyr-Val-Ala-Asp-p-Nitroanilide substrate. Synthesis of analogous substrates is described by L. A. Reiter (Int. J. Peptide Protein Res., 43, pp. 87-96 (1994)). The assay mixture contains:
The visible ICE assay is run in a 96-well microtiter plate. Buffer, ICE and DMSO (if inhibitor is present) are added to the wells in the order listed. The components are left to incubate at room temperature for 15 minutes starting at the time that all components are present in all wells. The microtiter plate reader is set to incubate at 37° C. After the 15 minute incubation, substrate is added directly to the wells and the reaction is monitored by following the release of the chromophore (pNA) at 405-603 nm at 37° C. for 20 minutes. A linear fit of the data is performed and the rate is calculated in mOD/min. DMSO is only present during experiments involving inhibitors, buffer is used to make up the volume to 100 μl in the other experiments.
This assay is run essentially according to Thornberry et al., Nature, 356 pp. 768-774 (1992), using substrate 17 referenced in that article. The substrate is: Acetyl-Tyr-Val-Ala-Asp-amino-4-methylcoumarin (AMC). The following components are mixed:
The assay is run in a 96-well microtiter plate. Buffer and ICE are added to the wells. The components are left to incubate at 37° C. for 15 minutes in a temperature-controlled wellplate. After the 15 minute incubation, the reaction is started by adding substrate directly to the wells and the reaction is monitored at 37° C. for 30 minutes by following the release of the AMC fluorophore using an excitation wavelength for 380 nm and an emission wavelength of 460 nm. A linear fit of the data for each well is performed and a rate is determined in fluorescence units per second.
(§1) For determination of enzyme inhibition constants (Ki) or the mode of inhibition (competitive, uncompetitive or noncompetitive), the rate data determined in the enzyme assays at varying inhibitor concentrations are computer-fit to standard enzyme kinetic equations (see I. H. Segel, Enzyme Kinetics, Wiley-Interscience, 1975).

Test [1] deals with Human Peripheral Blood Mononuclear Cells (PBMC). Description: PBMC cell assay: IL-1β assay with LPS-stimulated human PBMC. It counts as cell-based. To be noted: mature IL-1β in supernatant, LPS 5 ng/ml, 16-18 hr. The source says:
IL-1β Assay with a Mixed Population of Human Peripheral Blood Mononuclear Cells (PBMC) or Enriched Adherent Mononuclear Cells
Processing of pre-IL-1β by ICE can be measured in cell culture using a variety of cell sources. Human PBMC obtained from healthy donors provides a mixed population of lymphocyte subtypes and mononuclear cells that produce a spectrum of interleukins and cytokines in response to many classes of physiological stimulators. Adherent mononuclear cells from PBMC provides an enriched source of normal monocytes for selective studies of cytokine production by activated cells.
An initial dilution series of test compound in DMSO or ethanol is prepared, with a subsequent dilution into RPMI-10% FBS media (containing 2 mM L-glutamine, 10 mM HEPES, 50 U and 50 μg/ml pen/strep) respectively to yield drugs at 4×the final test concentration containing 0.4% DMSO or 0.4% ethanol. The final concentration of DMSO is 0.1% for all drug dilutions. A concentration titration which brackets the apparent Ki for a test compound determined in an ICE inhibition assay is generally used for the primary compound screen.
Generally 5-6 compound dilutions are tested and the cellular component of the assay is performed in duplicate, with duplicate ELISA determinations on each cell culture supernatant.
Buffy coat cells isolated from one pint human blood (yielding 40-45 ml final volume plasma plus cells) are diluted with media to 80 ml and LeukoPREP separation tubes (Becton Dickinson) are each overlaid with 10 ml of cell suspension. After 15 min centrifugation at 1500-1800×g, the plasma/media layer is aspirated and then the mononuclear cell layer is collected with a Pasteur pipette and transferred to a 15 ml conical centrifuge tube (Corning). Media is added to bring the volume to 15 ml, gently mix the cells by inversion and centrifuge at 300×g for 15 min. The PBMC pellet is resuspended in a small volume of media, the cells are counted and adjusted to 6×10^6 cells/ml.
For the cellular assay, 1.0 ml of the cell suspension is added to each well of a 24-well flat bottom tissue culture plate (Corning), 0.5 ml test compound dilution and 0.5 ml LPS solution (Sigma #L-3012; 20 ng/ml solution prepared in complete RPMI media; final LPS concentration 5 ng/ml). The 0.5 ml additions of test compound and LPS are usually sufficient to mix the contents of the wells. Three control mixtures are run per experiment, with either LPS alone, solvent vehicle control, and/or additional media to adjust the final culture volume to 2.0 ml. The cell cultures are incubated for 16-18 hr at 37° C. in the presence of 5% CO2.
At the end of the incubation period, cells are harvested and transferred to 15 ml conical centrifuge tubes. After centrifugation for 10 min at 200×g, supernatants are harvested and transferred to 1.5 ml Eppendorf tubes. It may be noted that the cell pellet may be utilized for a biochemical evaluation of pre-IL-1β and/or mature IL-1β content in cytosol extracts by Western blotting or ELISA with pre-IL-1β specific antisera.
PBMC are isolated and prepared as described above. Media (1.0 ml) is first added to wells followed by 0.5 ml of the PBMC suspension. After a one hour incubation, plates are gently shaken and nonadherent cells aspirated from each well. Wells are then gently washed three times with 1.0 ml of media and final resuspended in 1.0 ml media. The enrichment for adherent cells generally yields 2.5-3.0×10^5 cells per well. […]

The next test concerns the target Flice Caspase-8 (Homo sapiens, UniProt Q14790). Kind of test: Flice (Caspase-8) enzyme inhibition, Ki. It counts as biochemical. As to conditions: in vitro enzyme assay.
Text: (§2) Other assays that may be used to evaluate the compounds of this invention are disclosed in PCT application PCT/US96/20843, published Jun. 26, 1997, under publication no. WO 97/22619, which is incorporated herein by reference. Such assays include in vivo bioavailability determinations, pharmacokinetic studies in the mouse, inhibition of ICE homologs, inhibition of apoptosis, in vivo acute assay for anti-inflammatory efficacy, measurement of blood levels, IGIF assays, mouse carrageenan peritoneal inflammation assay, and type II collagen-induced arthritis.
as §1

The target of the next test is T2, CPP32 Caspase-3 (Homo sapiens, UniProt P42574).
T2 sequence (P42574 29-175 limits assumed): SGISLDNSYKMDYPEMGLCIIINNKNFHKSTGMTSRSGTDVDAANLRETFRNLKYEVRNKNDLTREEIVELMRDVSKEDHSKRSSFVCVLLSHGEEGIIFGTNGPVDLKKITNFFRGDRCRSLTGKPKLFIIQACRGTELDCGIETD
T2 sequence (P42574 176-277 limits assumed): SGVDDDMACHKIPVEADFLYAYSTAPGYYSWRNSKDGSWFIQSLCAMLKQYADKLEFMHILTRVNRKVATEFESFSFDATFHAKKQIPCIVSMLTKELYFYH
Description: CPP32 (Caspase-3) enzyme inhibition, Ki. It counts as biochemical. To be noted: in vitro enzyme assay.
Text: as §2, §1

SMILES strings stand for the structures.

Flice Caspase-8, sequence (Q14790 217-374 limits assumed): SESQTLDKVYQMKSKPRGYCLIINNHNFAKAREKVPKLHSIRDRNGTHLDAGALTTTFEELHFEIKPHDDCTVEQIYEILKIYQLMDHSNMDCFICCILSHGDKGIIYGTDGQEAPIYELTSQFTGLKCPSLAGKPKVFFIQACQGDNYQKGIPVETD
Flice Caspase-8, sequence (Q14790 385-479 limits assumed): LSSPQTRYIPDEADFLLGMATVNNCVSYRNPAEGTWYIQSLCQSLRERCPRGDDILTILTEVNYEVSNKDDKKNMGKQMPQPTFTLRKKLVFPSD

As to `O=C[C@H](CC(=O)O)NC(=O)CN1C(=O)[C@@H](NC(=O)c2nccc3ccccc23)CCC(=O)N1Cc1ccccc1` [Compound 11a, 3-(2-{2-Benzyl-6-[(isoquinoline-1-carbonyl)-amino]-3,7-dioxo-[1,2]diazepan-1-yl}-acetylamino)-4-oxo-butyric acid], the IC50 with Human whole blood was determined as 7300 nM; in test [1] it was 1400 nM. The inhibition constant (Ki) on ICE Caspase-1 came out at 101 nM.

On to `CS(=O)(=O)N1CCC[C@H](NC(=O)c2cc(Cl)c(O)c(Cl)c2)C(=O)N1CC(=O)N[C@H](C=O)CC(=O)O` [Compound 27, 3-{2-[6-(3,5-Dichloro-4-hydroxy-benzoylamino)-2-methanesulfonyl-7-oxo-[1,2]diazepan-1-yl]-acetylamino}-4-oxo-butyric acid], for which the half-maximal inhibitory concentration (IC50) came to 1900 nM in the test on Human whole blood and 1000 nM in test [1]. At ICE Caspase-1, the Ki worked out at 17 nM.

Consider `CC(C(=O)N[C@H](C=O)CC(=O)O)N1C(=O)[C@@H](NC(=O)c2cc(Cl)c(O)c(Cl)c2)CCC(=O)N1C` (mixture of isomers) [Compound 20, 3-{2-[6-(3,5-Dichloro-4-hydroxy-benzoylamino)-2-methyl-3,7-dioxo-[1,2]diazepan-1-yl]-propionylamino}-4-oxo-butyric acid], for which the values for the 50% inhibitory concentration (IC50) (in the test on Human whole blood; in test [1]) were 830 nM and 540 nM, respectively. For the same compound, the affinity on ICE Caspase-1 corresponds to a Ki of 0.9 nM.

Consider `CCCN1C(=O)CC[C@H](NC(=O)c2cc(Cl)c(O)c(Cl)c2)C(=O)N1CC(=O)N[C@H](C=O)CC(=O)O` [Compound 11c, 3-{2-[6-(3,5-Dichloro-4-hydroxy-benzoylamino)-3,7-dioxo-2-propyl-[1,2]diazepan-1-yl]-acetylamino}-4-oxo-butyric acid], for which the concentration for half-maximal inhibition (IC50) in the test with Human whole blood is 1450 nM; in test [1], 420 nM. The inhibition constant Ki turned out to be 16 nM at ICE Caspase-1, 1500 nM at Flice Caspase-8 and 22200 nM on CPP32 Caspase-3.

For `CCCN1C(=O)CC[C@H](NC(=O)c2nccc3ccccc23)C(=O)N1CC(=O)N[C@H](C=O)CC(=O)O` [Compound 11b, 3-(2-(6-[(Isoquinoline-1-carbonyl)-amino]-3,7-dioxo-2-propyl-[1,2]diazepan-1-yl)-acetylamino)-4-oxo-butyric acid], the figures for the IC50 (in the test on Human whole blood; in test [1]) were 5800 nM and 1500 nM, respectively. This compound displayed a Ki on ICE Caspase-1 of 120 nM.

As a reminder, the IC50 is the midpoint of a concentration-inhibition curve. Read a low IC50 as inhibition by little substance. The Ki is the equilibrium dissociation constant of an inhibitor or competing ligand from its target. Read a low Ki as higher affinity.
